Consider 18 compounds from patent US20070049593A1 (priority 2004, published 2007).

Counter-ions that a name gives are not always drawn. Some results are limits rather than exact numbers.

In the test the target is T1, HCV polymerase (Hepatitis C virus genotype 1b, UniProt P26663).
T1 construct: a region encoding NS5B (J Virol 1991 March, 65(3), 1105-13, 544 amino acids after deletion of 47 amino acids on the C-terminal); 6xHis (C); made in house; host or cells: Escherichia coli
T1 sequence (P26663 2420-2963): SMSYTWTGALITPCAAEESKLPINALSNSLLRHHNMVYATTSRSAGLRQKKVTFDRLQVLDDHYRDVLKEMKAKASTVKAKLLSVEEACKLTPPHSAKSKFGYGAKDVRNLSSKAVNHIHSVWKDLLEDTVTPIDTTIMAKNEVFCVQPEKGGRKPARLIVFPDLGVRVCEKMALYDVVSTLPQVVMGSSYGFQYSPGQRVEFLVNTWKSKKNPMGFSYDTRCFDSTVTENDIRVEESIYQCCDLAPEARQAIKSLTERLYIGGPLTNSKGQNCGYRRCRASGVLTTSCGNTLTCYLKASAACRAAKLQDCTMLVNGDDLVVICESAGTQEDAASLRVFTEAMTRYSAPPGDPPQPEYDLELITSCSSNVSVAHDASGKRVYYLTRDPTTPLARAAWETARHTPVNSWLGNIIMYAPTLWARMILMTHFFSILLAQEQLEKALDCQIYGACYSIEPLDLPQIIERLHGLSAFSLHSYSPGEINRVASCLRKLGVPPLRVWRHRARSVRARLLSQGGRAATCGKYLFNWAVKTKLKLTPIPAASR
Kind of test: biochemical. More on the design: species or system HCV BK strain. Put shortly: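 His-tagged NS5B (BK strain, 47-aa C-terminal deletion, E. coli-expressed) at 0.5 μg/ml copied 5 μg/ml run-off RNA bearing the HCV 3′ UTR with 2 μM UTP plus [3H]UTP, 50 μM ATP/GTP, in pH 7.5 Tris with 5 mM MgCl2, 25 °C, 90 min. TCA-precipitated RNA was counted and IC50 calculated.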
In general, IC50 refers to the concentration needed to halve the response being measured. The low end stands for inhibition by little substance, the high end for a need for much substance. For `COc1ccc2c(c1)OCCn1c-2c(C2CCCCC2)c2ccc(C(=O)N[C@@H](Cc3ccc(O)cc3)C(=O)N(C)OC)cc21` [Example 2-427, N—[(S)-2-(4-hydroxyphenyl)-1-(N-methoxy-N-methylcarbamoyl)ethyl]-12-cyclohexyl-3-methoxy-6,7-dihydro-5-oxa-7a-azadibenzo[a,e]azulene-9-carboxamide], the IC50 is less than 0.1 µM.

`COc1ccc2c(c1)OCCn1c-2c(C2CCCCC2)c2ccc(C(=O)N[C@@H](Cc3ccc(OCc4ccccc4)cc3)c3noc(=O)[nH]3)cc21` [Example 2-428, N—[(S)-2-(4-benzyloxyphenyl)-1-(5-oxo-4,5-dihydro-1,2,4-oxadiazol-3-yl)ethyl]-12-cyclohexyl-3-methoxy-6,7-dihydro-5-oxa-7a-azadibenzo[a,e]azulene-9-carboxamide] showed an IC50 of less than 0.1 µM.

`COc1ccc2c(c1)OCCn1c-2c(C2CCCCC2)c2ccc(C(=O)N[C@@H](Cc3ccc(O)cc3)c3noc(=O)[nH]3)cc21` [Example 2-429, N—[(S)-2-(4-hydroxyphenyl)-1-(5-oxo-4,5-dihydro-1,2,4-oxadiazol-3-yl)ethyl]-12-cyclohexyl-3-methoxy-6,7-dihydro-5-oxa-7a-azadibenzo[a,e]azulene-9-carboxamide]: the IC50 was less than 0.1 µM.

With `COc1ccc2c(c1)OCCn1c-2c(C2CCCCC2)c2ccc(C(=O)N[C@@H](Cc3ccc(OC(C)=O)cc3)c3noc(=O)[nH]3)cc21` [Example 2-430, 4-[(S)-2-[(12-cyclohexyl-3-methoxy-6,7-dihydro-5-oxa-7a-azadibenzo[a,e]azulene-9-carbonyl)amino]-2-(5-oxo-4,5-dihydro-1,2,4-oxadiazol-3-yl)ethyl]phenyl acetate], the IC50 was less than 0.1 µM.

In the case of `COc1ccc2c(c1)OCCn1c-2c(C2CCCCC2)c2ccc(C(=O)N[C@@H](Cc3ccc(OC(C)=O)cc3)C3=NC(C)(C)C(=O)O3)cc21` [Example 2-431, 4-[(S)-2-[(12-cyclohexyl-3-methoxy-6,7-dihydro-5-oxa-7a-azadibenzo[a,e]azulene-9-carbonyl)amino]-2-(4,4-dimethyl-5-oxo-4,5-dihydrooxazol-2-yl)ethyl]phenyl acetate], the IC50 is less than 0.1 µM.

With `COc1ccc2c(c1)OCCn1c-2c(C2CCCCC2)c2ccc(C(=O)NC(C)(C)c3nc4ccccc4n3CCN3CCOCC3)cc21` [Example 2-432, N-(1-methyl-1-{1-[2-(morpholin-4-yl)ethyl]-1H-benzimidazol-2-yl}ethyl)-12-cyclohexyl-3-methoxy-6,7-dihydro-5-oxa-7a-azadibenzo[a,e]azulene-9-carboxamide], the IC50 was less than 0.1 µM.

Turning to `COc1ccc2c(c1)OCCn1c-2c(C2CCCCC2)c2ccc(C(=O)NC(C)(C)c3nc4ccccc4n3CCO)cc21` [Example 2-433, N-{1-[1-(2-hydroxyethyl)-1H-benzimidazol-2-yl]-1-methylethyl}-12-cyclohexyl-3-methoxy-6,7-dihydro-5-oxa-7a-azadibenzo[a,e]azulene-9-carboxamide], the IC50 is less than 0.1 µM.

In turn, `COCCn1c(C(C)(C)NC(=O)c2ccc3c(C4CCCCC4)c4n(c3c2)CCOc2cc(OC)ccc2-4)nc2ccccc21` [Example 2-434, N-{1-[1-(2-methoxyethyl)-1H-benzimidazol-2-yl]-1-methylethyl}-12-cyclohexyl-3-methoxy-6,7-dihydro-5-oxa-7a-azadibenzo[a,e]azulene-9-carboxamide] showed an IC50 of less than 0.1 µM.

`CCOC(=O)[C@H](Cc1ccc(O)cc1)NC(=O)c1ccc2c(C3CCCCC3)c3n(c2c1)CCOc1cc(OC)ccc1-3` [Example 2-435, ethyl (S)-2-[(12-cyclohexyl-3-methoxy-6,7-dihydro-5-oxa-7a-azadibenzo[a,e]azulene-9-carbonyl)amino]-3-(4-hydroxyphenyl)propionate] gave an IC50 of less than 0.1 µM.

`COc1ccc2c(c1)OCCn1c-2c(C2CCCCC2)c2ccc(C(=O)NC(Cc3ccc(O)cc3)C(C)C)cc21` (stereo not drawn) [Example 2-436, N-[1-(4-hydroxybenzyl)-2-methylpropyl]-12-cyclohexyl-3-methoxy-6,7-dihydro-5-oxa-7a-azadibenzo[a,e]azulene-9-carboxamide]: the IC50 was less than 0.1 µM.

`COCCOc1cc2[nH]c(C3(NC(=O)c4ccc5c(C6CCCCC6)c6n(c5c4)CCOc4cc(OC)ccc4-6)CCC3)nc2cc1C(=O)O` [Example 2-437, 2-{1-[(12-cyclohexyl-3-methoxy-6,7-dihydro-5-oxa-7a-azadibenzo[a,e]azulene-9-carbonyl)amino]cyclobutyl}-6-(2-methoxyethoxy)-1H-benzimidazole-5-carboxylic acid]: the IC50 is less than 0.1 µM.

`COCCOc1cc2[nH]c(C3(NC(=O)c4ccc5c(C6CCCCC6)c6n(c5c4)CCOc4cc(OC)ccc4-6)CCC3)nc2cc1CO` [Example 2-438, N-{1-[5-hydroxymethyl-6-(2-methoxyethoxy)-1H-benzimidazol-2-yl]cyclobutyl}-12-cyclohexyl-3-methoxy-6,7-dihydro-5-oxa-7a-azadibenzo[a,e]azulene-9-carboxamide] had an IC50 of less than 0.1 µM.

With `COc1ccc2c(c1)OCCn1c-2c(C2CCCCC2)c2ccc(C(=O)NC3(c4nc5ccc(O)cc5[nH]4)CCC3)cc21` [Example 2-439, N-[1-(6-hydroxy-1H-benzimidazol-2-yl)cyclobutyl]-12-cyclohexyl-3-methoxy-6,7-dihydro-5-oxa-7a-azadibenzo[a,e]azulene-9-carboxamide], the IC50 was less than 0.1 µM.

On to `COc1ccc2c(c1)OCCn1c-2c(C2CCCCC2)c2ccc(C(=O)N[C@@H](Cc3c[nH]c4ccc(OCC(=O)O)cc34)c3csc(C)n3)cc21` [Example 2-440, {3-[(S)-2-[(12-cyclohexyl-3-methoxy-6,7-dihydro-5-oxa-7a-azadibenzo[a,e]azulene-9-carbonyl)amino]-2-(2-methylthiazol-4-yl)ethyl]-1H-indol-5-yloxy}acetic acid], for which the IC50 is less than 0.1 µM.

`COc1ccc2c(c1)OCCn1c-2c(C2CCCCC2)c2ccc(C(=O)N[C@H](C#N)Cc3ccc(O)cc3)cc21` [Example 2-441, N—[(S)-cyano-(4-hydroxybenzyl)-methyl]-12-cyclohexyl-3-methoxy-6,7-dihydro-5-oxa-7a-azadibenzo[a,e]azulene-9-carboxamide] showed an IC50 of less than 0.1 µM.

`COC(=O)C(N)Cc1ccc(C(C)(C)NC(=O)c2ccc3c(C4CCCCC4)c4n(c3c2)CCOc2cc(OC)ccc2-4)cc1` (stereo not drawn) [Example 2-442, methyl 2-amino-3-(4-{1-[(12-cyclohexyl-3-methoxy-6,7-dihydro-5-oxa-7a-azadibenzo[a,e]azulene-9-carbonyl)amino]-1-methylethyl}phenyl)propionate monohydrochloride] yielded an IC50 of less than 0.1 µM.

`COc1ccc2c(c1)OCCn1c-2c(C2CCCCC2)c2ccc(C(=O)NC(C)(C)c3ccc(CC(NC(C)=O)C(=O)O)cc3)cc21` (stereo not drawn) [Example 2-443, 2-acetylamino-3-(4-{1-[(12-cyclohexyl-3-methoxy-6,7-dihydro-5-oxa-7a-azadibenzo[a,e]azulene-9-carbonyl)amino]-1-methylethyl}phenyl)propionic acid]: the IC50 is less than 0.1 µM.

`COc1ccc2c(c1)OCCn1c-2c(C2CCCCC2)c2ccc(C(=O)NC(C)(C)c3ccc(CC(N)C(=O)O)cc3)cc21` (stereo not drawn) [Example 2-444, 2-amino-3-(4-{1-[(12-cyclohexyl-3-methoxy-6,7-dihydro-5-oxa-7a-azadibenzo[a,e]azulene-9-carbonyl)amino]-1-methylethyl}phenyl)propionic acid] came in with an IC50 of less than 0.1 µM.
